Values quoted from earlier work, collected in PMC4364779, “IMD-4690, a Novel Specific Inhibitor for Plasminogen Activator Inhibitor-1, Reduces Allergic Airway Remodeling in a Mouse Model of Chronic Asthma via Regulating Angiogenesis and Remodeling-Related Mediators” (PLoS ONE, 2015).

Test system: murine model of chronic asthma
Set-up: method as in PMID 22323366
Details: cited from earlier work

O=C(O)C(=O)c1cn(Cc2ccccc2)c2ccc(-c3ccc(OC(F)(F)F)cc3)cc12 [tiplaxtinin]
Allergic airway inflammation and lung collagen deposition: attenuated
